Assay results published in doi:10.1101/2024.04.24.590935, “Measuring PETase enzyme kinetics by single-molecule microscopy” (bioRxiv, 2024).

Legend:
[1] = biological target: T1, PETase (wild-type PETase, IsPETase) (Pseudideonella sakaiensis, UniProt A0A0K8P6T7, W159H/S238F); test: single-molecule TIRF of Qdot655-labelled PETase on PET film, competition by pNPA; format: binding; conditions: 4 mM pNPA; competitive with PET; also model soluble substrate; 50 mM sodium phosphate, 100 mM NaCl, pH 7.4, 22 °C
T1 construct: gene ISF6_4831
T1 sequence (A0A0K8P6T7 28-290 W159H/S238F): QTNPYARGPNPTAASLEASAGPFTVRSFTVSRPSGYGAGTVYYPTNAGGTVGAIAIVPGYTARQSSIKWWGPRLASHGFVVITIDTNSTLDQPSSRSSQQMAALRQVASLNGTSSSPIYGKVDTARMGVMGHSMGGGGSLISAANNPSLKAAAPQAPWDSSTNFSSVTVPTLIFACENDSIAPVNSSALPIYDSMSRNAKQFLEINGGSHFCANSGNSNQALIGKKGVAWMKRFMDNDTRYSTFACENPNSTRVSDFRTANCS

[2] = biological target: T2, PETase (wild-type PETase, IsPETase) (Pseudideonella sakaiensis, UniProt A0A0K8P6T7); test: as above; format: binding; conditions: 4 mM pNPA; competitive with PET; also model soluble substrate; 50 mM sodium phosphate, 100 mM NaCl, pH 7.4, 22 °C
T2 construct: gene ISF6_4831
T2 sequence (A0A0K8P6T7 28-290): as the sequence (A0A0K8P6T7 28-290 W159H/S238F) above, with H132W, F211S counted along it

## CC(=O)Oc1ccc([N+](=O)[O-])cc1 [4-Nitrophenyl acetate]
[1]
  single-molecule TIRF of Qdot655-labelled PETase on PET film, competition by pNPA: pNPA strongly diminished the landing rate of the wild-type and hyperactive mutant
[2]
  single-molecule TIRF of Qdot655-labelled PETase on PET film, competition by pNPA: pNPA reduced the binding duration of wild-type PETase and the hyperactive variant
